Measured values from patent US20240197897A1, “HETEROTANDEM BICYCLIC PEPTIDE COMPLEXES” (Bicycle Tx Limited, priority 2021, published 2024).
Starred links: 1 amine or outer side, 2 acyl side, 3 side chain; linkers in the order of their positions; H or OH if unused. Positions of bridges follow the written chain, without caps; N, C: chain ends. Non-standard residues stand in square brackets, D forms with d. Residues, ends and D or L forms follow the SMILES beside them. Chains are numbered I, II in the order given. No end group written: not given here. *: point of attachment. TATA = O=C(CC[*:1])N1CN(C(=O)CC[*:2])CN(C(=O)CC[*:3])C1; X2 = O=C(CCOCCOCCOCCOCCOCCn1cc(CCC(=O)[*:2])nn1)[*:1]; Hyp = O=C(O)[C@@H]1C[C@@H](O)CN1; hArg = N=C(N)NCCCC[C@H](N)C(=O)O; Cba = N[C@@H](CC1CCC1)C(=O)O; Pent4ynoyl = C#CCCC(=O)*

What was measured:
[1] = NK cytotoxicity assay (NK:HT1080-luc co-culture, luciferase readout); format: cell-based, human; conditions: NK:HT1080-luc co-culture, 24 hours, four-parameter logistic regression; FIGS. 2-4, 6-8, 10; read-out: EC50 NK cytotoxicity (tumor cell killing)
Procedure: (§1) Heterotandem bicyclic peptide complexes were evaluated for NK functional readouts (cytotoxicity and cytokine secretion) in NK-tumor cell line co-cultures.
(§2) NK cells were isolated using a negative isolation kit (STEMCELL™ Technologies 17955) from the total PBMC population purified from whole blood. NK cell pellet was then resuspended in DMEM medium (Corning™ 10-013-CV) with 10% heat-inactivated fetal bovine serum (FBS; Corning® 35-011-CV), 10 mM HEPES (Gibco™ 15-630-080), and 1% Penicillin Streptomycin (Corning™ 30-002-CI), and 50 IU/mL human IL-2 (Miltenyi Biotec® 130-097-748), at a concentration of 4×10^5 cells/mL. For the NK cell cytotoxicity assays, 50 μL (2×10^4) of cell suspension was plated in the 96-well plate (Grenier® Bio One™ 655090) containing 50 μl (4×10^3) HT1080-luc cells (ATCC® CCL-121-luc2) in DMEM (Gibco™ 11875-093; with L-glutamine) with 10% heat-inactivated fetal bovine serum (FBS; Corning® 35-011-CV), 10 mM HEPES (Gibco™ 15-630-080), and 1% Penicillin Streptomycin (Corning™ 30-002-CI). […] The plates were then incubated for 24 hours at 37° C., 5% CO2. Post-incubation, plates was centrifuged at 250×g for 5 minutes and 100 μl supernatant discarded. Samples were then incubated 10 minutes with 50 μl Bright-Glo™ Luciferase Assay system (Promega™ E2620). Luminescence upon excitation at 570 nm was read using a CLARIOstar® plate-reader with MARS Data Analysis Software™. Data was fit to a four-parameter non-linear regression in GraphPad Prism™ 8.0.2 to generate an EC50 value.

HT1080-luc cells = experiment: as above; format: cell-based, human; conditions: in comparison to NK:HT1080-luc co-culture without heterotandem complex (NK-TICA)
Procedure: as §1, §2

[2] = system: NK cells co-cultured with the HT1080-luc tumor cell line; experiment: Cytokine secretion assay (IFN-gamma, TNF-alpha; NK:HT1080-luc co-culture); format: cell-based, human; conditions: for TNF-alpha and IFN-gamma production from NK cells: 2 nM construct, Luminex, FIG. 11
Procedure: as §1
NK cells were isolated using a negative isolation kit (STEMCELL Technologies® 17955) from the total PBMC population purified from whole blood. NK cell pellet was then resuspended in DMEM medium (Corning™ 10-013-CV) with 10% heat-inactivated fetal bovine serum (FBS; Corning® 35-011-CV), 10 mM HEPES (Gibco™ 15-630-080), and 1% Penicillin Streptomycin (Corning™ 30-002-CI), and 50 IU/mL human IL-2 (Miltenyi Biotec® 130-097-748), at a concentration of 4×10^5 cells/mL. For the NK cell cytokine secretion assay, […] NK cell in 50 μl cell suspension were plated in the 96-well U-bottom plate (Grenier Bio One™ 650180) containing 50 μl (4×10^4) HT1080-luc cells (ATCC® CCL-121-luc2) in DMEM (Gibco™ 11875-093; with L-glutamine) with 10% heat-inactivated fetal bovine serum (FBS; Corning® 35-011-CV), 10 mM HEPES (Gibco™ 15-630-080), and 1% Penicillin Streptomycin (Corning™ 30-002-CI). […] The plates were then incubated for 4 hours at 37° C., 5% CO2. Post-incubation, plates was centrifuged at 250×g for 5 minutes and 100 μl supernatant harvested. Samples were immediately stored at −20° C. or assessed for cytokine levels. Interferon-gamma or TNF-alpha levels were measured in 50 μl of collected supernatants through the Human IFN-gamma Quantikine™ ELISA kit (R&D Systems DIF50C) or Human TNF-alpha Quantikine™ ELISA kit (R&D Systems DTAOOD). Data was acquired at wavelength of 450 nm on CLARIOstar® plate-reader and was fit to a four-parameter non-linear regression in CLARIOstar® plate reader MARS Data Analysis™ software and analyzed with GraphPad Prism™ 8.0.2 software to quantify to cytokine levels. Alternatively, TNF-alpha and IFN-gamma cytokine were measured from 25 μl of collected supernatant by Luminex Assay: Human XL Cytokine Discovery Premixed Kit (R&D Systems, FCS™ 18-05) Luminex 200™ flow instrument and xPONENT™ analysis software.

NKp46 (human) = NKp46 (human) (UniProt O76036); experiment: cell-based or functional assay
[3] = target: EPH receptor A2 (ephrin type-A receptor 2) (human) (UniProt P29317); experiment: cell-based or functional assay
Chain of EPH receptor A2 (ephrin type-A receptor 2) (human) (P29317 24-976): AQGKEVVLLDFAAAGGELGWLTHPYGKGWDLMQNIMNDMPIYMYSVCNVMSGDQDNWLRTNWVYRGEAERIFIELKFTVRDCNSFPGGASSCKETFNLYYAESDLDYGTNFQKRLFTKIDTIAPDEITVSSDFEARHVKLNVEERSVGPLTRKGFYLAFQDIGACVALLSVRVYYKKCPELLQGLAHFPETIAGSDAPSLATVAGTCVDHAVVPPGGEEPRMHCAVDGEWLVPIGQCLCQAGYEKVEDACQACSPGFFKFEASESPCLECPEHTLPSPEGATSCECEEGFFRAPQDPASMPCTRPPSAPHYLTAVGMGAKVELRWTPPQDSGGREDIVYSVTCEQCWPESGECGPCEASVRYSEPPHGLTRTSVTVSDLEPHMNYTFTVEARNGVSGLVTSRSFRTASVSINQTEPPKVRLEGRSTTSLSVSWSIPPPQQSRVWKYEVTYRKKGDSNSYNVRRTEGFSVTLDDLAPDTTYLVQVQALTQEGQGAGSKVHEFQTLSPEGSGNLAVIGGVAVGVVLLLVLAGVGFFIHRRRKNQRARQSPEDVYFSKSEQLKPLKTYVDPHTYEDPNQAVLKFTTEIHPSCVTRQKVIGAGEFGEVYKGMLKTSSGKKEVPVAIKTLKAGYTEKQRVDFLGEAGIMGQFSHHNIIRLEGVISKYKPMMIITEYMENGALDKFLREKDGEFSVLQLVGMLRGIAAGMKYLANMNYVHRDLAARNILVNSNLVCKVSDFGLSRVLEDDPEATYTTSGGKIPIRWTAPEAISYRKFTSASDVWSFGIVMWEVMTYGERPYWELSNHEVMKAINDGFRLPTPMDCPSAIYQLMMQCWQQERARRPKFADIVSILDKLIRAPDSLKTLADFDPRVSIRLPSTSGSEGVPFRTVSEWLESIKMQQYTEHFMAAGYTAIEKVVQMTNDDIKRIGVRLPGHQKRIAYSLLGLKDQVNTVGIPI

Chain of NKp46 (human) (O76036 22-304): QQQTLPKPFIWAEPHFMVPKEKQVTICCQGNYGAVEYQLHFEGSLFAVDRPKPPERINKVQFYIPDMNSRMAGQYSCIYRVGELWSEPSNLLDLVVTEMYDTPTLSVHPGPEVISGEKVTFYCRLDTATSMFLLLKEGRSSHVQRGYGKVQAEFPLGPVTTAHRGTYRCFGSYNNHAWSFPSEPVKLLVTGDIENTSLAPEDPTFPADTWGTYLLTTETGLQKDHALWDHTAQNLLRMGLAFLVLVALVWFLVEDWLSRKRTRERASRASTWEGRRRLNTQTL

Molecule: CC(=O)N[C@H]1CSCCC(=O)N2CN3CN(C2)C(=O)CCSC[C@H](NC(=O)[C@H](CC(C)C)NC(=O)[C@H](Cc2ccc(O)cc2)NC(=O)[C@H](CC(=O)O)NC(=O)[C@@H]2CCCN2C(=O)[C@H](CC2CCC2)NC(=O)[C@H](Cc2ccc(O)cc2)NC1=O)C(=O)N[C@H](C)C(=O)N[C@@H](CC(=O)O)C(=O)N[C@@H](CCC(=O)O)C(=O)N[C@@H](Cc1ccc(O)cc1)C(=O)N[C@H](C(=O)N[C@@H](CCCCNC(=O)CCc1cn(CCOCCOCCOCCOCCOCCC(=O)N[C@@H](C)C(=O)N[C@@H](CCCCNC(=N)N)C(=O)N[C@@H](CC(=O)O)C(=O)N[C@H]2CSCCC(=O)N4CN5CN(C4)C(=O)CCSC[C@H](NC(=O)[C@H](CC(C)C)NC(=O)[C@@H]4CCCN4C(=O)[C@H](CC(N)=O)NC(=O)[C@H](C(C)C)NC(=O)[C@H](CC(C)C)NC(=O)[C@@H]4C[C@@H](O)CN4C2=O)C(=O)N[C@@H](CC(C)C)C(=O)N[C@@H](Cc2c[nH]cn2)C(=O)N2CCC[C@H]2C(=O)N[C@H](CC(=O)O)C(=O)N[C@@H](Cc2c[nH]c4ccccc24)C(=O)N[C@@H](CCCCNC(=N)N)C(=O)N[C@H](C(N)=O)CSCCC5=O)nn1)C(N)=O)CSCCC3=O [BCY17225] (I: A[hArg]DC[Hyp]LVNPLCLHP[dD]W[hArg]C-NH2 / II: Ac-CY[Cba]PDYLC[dA]DEYCK-NH2; linker I:4-I:11-I:18, II:1-II:8-II:13 via TATA; linker I:N-II:14 via X2; C-terminus assumed)
- EC50 [1]: 3.6 pM
- effect on tumor cell killing by NK cells, in words (HT1080-luc cells): enhanced, dose-dependent effect in tumor cell killing
- TNF-alpha and IFN-gamma production from NK cells [2]: Cytokine production from NK cells was observed

Molecule: CC(=O)N[C@H]1CSCCC(=O)N2CN3CN(C2)C(=O)CCSC[C@H](NC(=O)[C@H](CC(C)C)NC(=O)[C@H](Cc2ccc(O)cc2)NC(=O)[C@H](CC(=O)O)NC(=O)[C@@H]2CCCN2C(=O)[C@H](CC2CCC2)NC(=O)[C@H](Cc2ccc(O)cc2)NC1=O)C(=O)N[C@H](C)C(=O)N[C@@H](CC(=O)O)C(=O)N[C@@H](CCC(=O)O)C(=O)N[C@@H](Cc1ccc(O)cc1)C(=O)N[C@H](C(=O)N[C@@H](CCCCNC(=O)CCc1cn(CCOCCOCCOCCOCCNC(=O)CCOCC(COCCC(=O)NCCOCCOCCOCCOCCn2cc(CCC(=O)NCCCC[C@H](NC(=O)[C@@H]4CSCCC(=O)N5CN6CN(C5)C(=O)CCSC[C@H](NC(=O)[C@H](CC(C)C)NC(=O)[C@H](Cc5ccc(O)cc5)NC(=O)[C@H](CC(=O)O)NC(=O)[C@@H]5CCCN5C(=O)[C@H](CC5CCC5)NC(=O)[C@H](Cc5ccc(O)cc5)NC(=O)[C@@H](NC(C)=O)CSCCC6=O)C(=O)N[C@H](C)C(=O)N[C@@H](CC(=O)O)C(=O)N[C@@H](CCC(=O)O)C(=O)N[C@@H](Cc5ccc(O)cc5)C(=O)N4)C(N)=O)nn2)(COCCC(=O)NCCOCCOCCOCCOCCn2cc(CCC(=O)NCCCC[C@H](NC(=O)[C@@H]4CSCCC(=O)N5CN6CN(C5)C(=O)CCSC[C@H](NC(=O)[C@H](CC(C)C)NC(=O)[C@H](Cc5ccc(O)cc5)NC(=O)[C@H](CC(=O)O)NC(=O)[C@@H]5CCCN5C(=O)[C@H](CC5CCC5)NC(=O)[C@H](Cc5ccc(O)cc5)NC(=O)[C@@H](NC(C)=O)CSCCC6=O)C(=O)N[C@H](C)C(=O)N[C@@H](CC(=O)O)C(=O)N[C@@H](CCC(=O)O)C(=O)N[C@@H](Cc5ccc(O)cc5)C(=O)N4)C(N)=O)nn2)NC(=O)CCOCCOCCOCCOCCOCCC(=O)N[C@@H](C)C(=O)N[C@@H](CCCCNC(=N)N)C(=O)N[C@@H](CC(=O)O)C(=O)N[C@H]2CSCCC(=O)N4CN5CN(C4)C(=O)CCSC[C@H](NC(=O)[C@H](CC(C)C)NC(=O)[C@@H]4CCCN4C(=O)[C@H](CC(N)=O)NC(=O)[C@H](C(C)C)NC(=O)[C@H](CC(C)C)NC(=O)[C@@H]4C[C@@H](O)CN4C2=O)C(=O)N[C@@H](CC(C)C)C(=O)N[C@@H](Cc2c[nH]cn2)C(=O)N2CCC[C@H]2C(=O)N[C@H](CC(=O)O)C(=O)N[C@@H](Cc2c[nH]c4ccccc24)C(=O)N[C@@H](CCCCNC(=N)N)C(=O)N[C@H](C(N)=O)CSCCC5=O)nn1)C(N)=O)CSCCC3=O [BCY21686]
- EC50 [1]: 1.3 pM
- effect on tumor cell killing by NK cells, in words (HT1080-luc cells): enhanced, dose-dependent effect in tumor cell killing
- TNF-alpha and IFN-gamma production from NK cells [2]: Cytokine production from NK cells was observed

Molecule: BCY18048: EphA2 specific peptide BCY9594 linked to two NKp46 specific peptides (BCY17662) via N-(acid-PEG3)-N-bis(PEG3-azide) linker (peptide 1 A[hArg]DC[Hyp]LVNPLCLHP[dD]W[hArg]C; peptide 2 ACYLPDYLC[dK](Pent4ynoyl)DEYCA; linker I:4-I:11-I:18, II:2-II:9-II:14 via TATA; also: chain 1 N-terminus and chain 2 D-Lys(PYA) joined through N-(acid-PEG3)-N-bis(PEG3-azide) linker, two copies of chain 2)
- secretion of IFN-gamma and TNF-alpha by NK cells ([2]; 10 nM construct, ELISA, FIG. 12): induced secretion of IFN-gamma and TNF-alpha

Molecule: BCY21687: EphA2 specific peptide BCY9594 linked to three NKp46 specific peptides (BCY17224) via Methane-N-(PEG10-acid)-Tri(MeOPr-amide-PEG10-azide) linker (peptide 1 A[hArg]DC[Hyp]LVNPLCLHP[dD]W[hArg]C; peptide 2 Ac-CY[Cba]PDYLC[dA]DEYCK(Pent4ynoyl); linker I:4-I:11-I:18, II:1-II:8-II:13 via TATA; also: chain 1 N-terminus and chain 2 K(PYA) joined through Methane-N-(PEG10-acid)-Tri(MeOPr-amide-PEG10-azide) linker, three copies of chain 2)
- TNF-alpha and IFN-gamma production from NK cells [2]: Cytokine production from NK cells was observed

B1: heterotandem bicyclic peptide complex BCY18731 (peptide)
peptide 1: A[hArg]DC[Hyp]LVNPLCLHP[dD]W[hArg]C
peptide 2: Ac-CY[Cba]PDYLC[dA]DEYCK(Pent4ynoyl)
modifications: linker I:4-I:11-I:18, II:1-II:8-II:13 via TATA; not fully specified (bridges); also: joined via azide-PEG24-acid linker (N-terminus of chain 1 to PYA of chain 2, triazole)
- EC50, NK cytotoxicity assay (HT1080-luc luminescence) (NKp46 (human)): 18 pM

B2: heterotandem bicyclic peptide complex BCY17226 (peptide)
peptide 1: AXDCXLVNPLCLHPDWXC
peptide 2: CYXPDYLCADEYCK
modifications: BCY17224: N-terminal acetyl; Cba (beta-cyclobutylalanine) and dA (D-Ala) within SEQ ID NO: 5; C-terminal Lys(PYA) joined to the linker azide; Ci, Cii, Ciii cyclised on TATA scaffold; BCY9594: HArg (homoarginine) as 2nd residue of the N-terminal extension; HyP, dD and HArg within SEQ ID NO: 2; Ci, Cii, Ciii cyclised on TATA scaffold; N-terminus joined to the linker
- EC50, NK cytotoxicity assay (HT1080-luc luminescence) [3]: 6.1 pM

B3: heterotandem bicyclic peptide complex BCY21686 (peptide)
peptide 1: A[hArg]DC[Hyp]LVNPLCLHP[dD]W[hArg]C
peptide 2: Ac-CY[Cba]PDYLC[dA]DEYCK(Pent4ynoyl)
modifications: linker I:4-I:11-I:18, II:1-II:8-II:13 via TATA; not fully specified (bridges); also: EphA2:NKp46 1:3, three copies of chain 2 on the linker, linker also given with PEG3-acid, X5, X17: HyP or HArg
- EC50, NK cytotoxicity assay (HT1080-luc luminescence) (NKp46 (human)): 1.3 pM
